Laboratory results: US8293240B2, “Method of treating drug-resistant cancer” (The Regents of the University of Colorado, priority 2004, dated 2012)

Assays:
[1] = 5-FU that is taken up by the cell; cited from earlier work
[2] = test system: RD cells (rhabdomyosarcoma cells-not drug resistant); experiment: percent death of RD cells (flow cytometry, live versus dead); assay type: cell-based
Protocol: The cells were cultured at a concentration of 0.5 to 1 million cells per ml. Cells were untreated or treated with or 2-deoxy-D-glucose and/or etomoxir and/or antibodies to UCP2 and used at dilutions or concentrations as indicated on the figure. The cells were cultured in the presence or absence of etomoxir at 100 micrograms/ml for 24 hours followed by treatment with antibody as indicated for an additional 24 or 48 hours (i.e. totals of 48 hours or 72 hours respectively). Cells were harvested and analyzed by flow cytometry. Each dot on the dot plot represents one cell. Five thousand cells were assessed for forward scatter (FS), as a function of cell size, versus side scatter (SS), as a function of cellular granularity. The upper elipse represents live cells by these criterion and the lower elipse in each dot plot represents the dead cells.
Referring to FIGS. 29 and 30, RD cells (rhabdomyosarcoma cells-not drug resistant), cultured as described above under “Materials and Methods” were untreated or treated with etomoxir, with 2-deoxy-D-glucose, or with a combination of etomoxir and 2-deoxy-D-glucose, at concentrations indicated in FIG. 29 for 24 hours. Cells were harvested and analyzed by flow cytometry.
Referring to FIGS. 33 and 34, RD cells, cultured as described in Example 22, were untreated or treated with etomoxir, with 2-deoxy-D-glucose, or with a combination of etomoxir and 2-deoxy-D-glucose, at concentrations indicated in FIG. 33 for 48 hours. Cells were harvested and analyzed by flow cytometry.
Referring to FIGS. 37 and 38, RD cells, cultured as described in Example 22, were treated with anti-UCP2 antibody and otherwise untreated or treated simultaneously with etomoxir, 2-deoxy-D-glucose, or both, at concentrations indicated in FIG. 37 for 48 hours. Cells were harvested and analyzed by flow cytometry.

HL60 MDR tumor = experiment: tumor volume of HL60 MDR tumor implanted in nude mice; assay type: in vivo; conditions: for tumor volume: 200 ug Etomoxir, 2.5 mM 2-Deoxy-D-glucose
From the text: Tumor implantation. Mice were purchased from the Animal Production Program of National Cancer Institute, Frederick, Md. The animals used were Athymic Ncr-nu/nu (strain code 01B74). HL60 MDR cells were harvested and reconstituted at 1 million cells per 100 microliters of phosphate buffered saline. One million tumor cells per injection site were implanted subcutaneously on two sites of the animal's back. Treatments began at exactly seven days post tumor implantation. Tumor size/volume was monitored twice weekly using measurement calipers, with the formula Tumor Volume=π×(short diameter)^2×(long diameter)/6.
Mice experiments with fatty acid metabolism and glucose metabolism inhibitors. Fatty acid metabolism inhibitors were exemplified by etomoxir at 200 micrograms/day. Glucose metabolism inhibitors were exemplified by 2-deoxy-D-glucose at 2.5 mM in 100 microliters daily. The combination was administered daily, etomoxir at 200 micrograms and 2-deoxy-D-glucose at 2.5 mM in 100 microliters. All drugs were administered intra-peritoneally. Fluorouracil, at 20 mg per kilogram mouse, was injected intra-peritoneally once a week
HL60 MDR human leukemia cells were cultured and implanted in nude mice as described above under “Materials and Methods”. The mice were given 200 ug of Etomoxir, 2.5 mM 2-Deoxy-D-glucose, or both 200 ug of Etomoxir and 2.5 mM 2-Deoxy-D-glucose given daily by IP injection. Treatment began exactly one week after tumor implantation.
Mice were purchased from National Cancer Institute, Animal Production Program (Frederick, Md.). The animals used were Athymic Ncr-nu/nu (Strain code 01B74). HL60 MDR cells were harvested and reconstituted at 1 million cells per 100 microliters of phosphate buffered saline. One million tumor cells/per injection site were implanted subcutaneously on two sites of the animal's back. Treatments began at exactly seven days post tumor implantation. Tumor size/volume was monitored twice weekly using measurement calipers with the formula for Tumor Volume=π(short diameter)^2(long diameter)/(divided by )6. […]

[3] = test system: HL60 MDR human leukemia cells; experiment: percent death of HL60 MDR cells (flow cytometry, live versus dead); assay type: cell-based
Protocol: Dot plots as a function of live versus dead cells. The cells were cultured at a concentration of 0.5 to 1 million cells per ml. Cells were untreated or treated with or 2-deoxy-D-glucose and/or etomoxir and/or antibodies to UCP2 and used at dilutions or concentrations as indicated on the figure. The cells were cultured in the presence or absence of etomoxir at 100 micrograms/ml for 24 hours followed by treatment with antibody as indicated for an additional 24 or 48 hours (i.e. totals of 48 hours or 72 hours respectively). Cells were harvested and analyzed by flow cytometry. Each dot on the dot plot represents one cell. Five thousand cells were assessed for forward scatter (FS), as a function of cell size, versus side scatter (SS), as a function of cellular granularity. The upper elipse represents live cells by these criterion and the lower elipse in each dot plot represents the dead cells.
HL60 MDR human leukemia cells were cultured as described above under “Materials and Methods”. Cells were untreated or treated with etomoxir, with 2-deoxy-D-glucose, or with a combination of etomoxir and 2-deoxy-D-glucose, at concentrations indicated in FIG. 27 for 24 hours. Cells were harvested and analyzed by flow cytometry.
Referring to FIGS. 31 and 32, HL60 MDR cells, cultured as described in Example 21, were untreated or treated with etomoxir, with 2-deoxy-D-glucose, or with a combination of etomoxir and 2-deoxy-D-glucose, at concentrations indicated in FIG. 31 for 48 hours. Cells were harvested and analyzed by flow cytometry.
Referring to FIGS. 35 and 36, HL60 MDR cells, cultured as described in Example 21, were treated with anti-UCP2 antibody and otherwise untreated or treated simultaneously with etomoxir, 2-deoxy-D-glucose, or both, at concentrations indicated in FIG. 35 for 48 hours. Cells were harvested and analyzed by flow cytometry.

B16F1 melanoma cells = experiment: mice injected with B16F1 melanoma cells exposed or not to cerulenin; assay type: in vivo; conditions: for tumor observation and activity of mouse: B16F1 10^6 cells treated w/25 ug/ml cerulenin 5.0 hrs before injection
From the text: Highly carcinogenic B16F1 melanoma cells were either exposed (“treated”) or not exposed to cerulenin, then injected into male mice.

B16F1 = experiment: % death of B16F1 cells treated or not with cerulenin (flow cytometry); assay type: cell-based, mouse; conditions: B16F1, 25 ug/mL Cerulenin
Protocol: (§1) Statistical Analysis, Percents, and Geometric Mean Values Percents. Gating is a tool provided by Cell Quest software and allows for the analysis of a certain population of cells. Gating around both the live and dead cell populations gave a percent of the cell numbers that was in each population. After the gates were drawn, a percent value of dead cells was calculated by taking the number of dead cells divided by the number of total cells and multiplying by one hundred.
(§2) This example illustrates an embodiment of the invention, where multi-drug resistant cancer cells were exposed to compositions of the invention. Analysis of the cells was performed using flow cytometry. The flow cytometry experiments were performed as follows. The cells were harvested, counted, and resuspended as described above. For DNA staining, the cells were washed and resuspended in ice-cold PBS and fixed by the dropwise addition of 95% ethanol. The cells were then incubated for 30 minutes on ice, washed, and resuspended in PBS containing 1% formaldehyde and 0.01% Tween. The cells were incubated with 50 units of DNAse and washed with PBS containing 5% DNAse. The cells were then incubated with anti DNA Fab (166, kind gift of Dr. Susan Wallace, University of Vermont), then washed and stained with a fluorescein conjugated second step anti-mouse immunoglobulin. The cells were then washed and resuspended in PBS/3% BSA/1% formaldehyde. The cells were stained for intracellular H2O2 using 6-carboxy-2′,7′-dichlorodihydrofluorescein diacetate (DCF-DA, Molecular Probes, Eugene, Oreg.). The cells were incubated with 1 mM DCF-DA for 20 minutes, washed twice in PBS containing 5% fetal calf serum and analyzed using flow cytometry. The mitochondrial membrane potential was assessed using MitoTracker Red (CM-H2XROS, Molecular Probes, Eugene, Oreg.). The cells were resuspended in warm (37° C.) PBS containing a final concentration of 0.5 micromolar of dye. The cells were then incubated for 30 minutes, pelleted, and resuspended in prewarmed medium for analysis. The data was acquired on a Coulter Elite Epics or Excel flow cytometer (Coulter, Hialeah, Fla.) and analyzed with CellQuest software, (Becton Dickinson, San Jose, Calif.). […] Each sample population was classified for cell size (forward scatter) and complexity (side scatter), gated on a population of interest and evaluated using 40,000 cells. Each figure describing flow cytometric data represents one of at least four replicate experiments. […]
(§3) The flow cytometry experiments were performed as follows. Once the samples were prepared and transferred into flow cytometric tubes, the samples were analyzed on a Becton/Dickinson Flow Cytometer. […] Statistical analysis, percents, and geometric mean values percents were calculated as described above.

HL60 = experiment: % death / microscopy of HL60 cells treated or not with cerulenin; assay type: cell-based, human; conditions: for % Death: HL60, 25 ug/mL Cerulenin
Protocol: as §1
(§4) This example illustrates an embodiment of the invention, where multi-drug resistant cancer cells were exposed to compositions of the invention. Analysis of the cells was performed using flow cytometry. The flow cytometry experiments were performed as follows. The cells were harvested, counted, and resuspended as described above. For DNA staining, the cells were washed and resuspended in ice-cold PBS and fixed by the dropwise addition of 95% ethanol. The cells were then incubated for 30 minutes on ice, washed, and resuspended in PBS containing 1% formaldehyde and 0.01% Tween. The cells were incubated with 50 units of DNAse and washed with PBS containing 5% DNAse. […] The cells were incubated with 1 mM DCF-DA for 20 minutes, washed twice in PBS containing 5% fetal calf serum and analyzed using flow cytometry. The mitochondrial membrane potential was assessed using MitoTracker Red (CM-H2XROS, Molecular Probes, Eugene, Oreg.). […] The data was acquired on a Coulter Elite Epics or Excel flow cytometer (Coulter, Hialeah, Fla.) and analyzed with CellQuest software, (Becton Dickinson, San Jose, Calif.). […] Each sample population was classified for cell size (forward scatter) and complexity (side scatter), gated on a population of interest and evaluated using 40,000 cells. […]
as §3, with “above. […]” for “above.”

L1210 = experiment: % death of L1210 cells treated or not with cerulenin (flow cytometry); assay type: cell-based; conditions: L1210, 25 ug/mL Cerulenin
Protocol: as §1
as §4, with “above.” for “above. For DNA staining, the cells were washed and resuspended in ice-cold PBS and fixed by the dropwise addition of 95% ethanol. The cells were then incubated for 30 minutes on ice, washed, and resuspended in PBS containing 1% formaldehyde and 0.01% Tween. The cells were incubated with 50 units of DNAse and washed with PBS containing 5% DNAse.”

HL60 MDR = experiment: % death / microscopy of HL60 MDR cells treated or not with cerulenin; assay type: cell-based, human; conditions: for % Death: 25 ug/mL Cerulenin
Protocol: as §1, §2
as §3, with “above. […]” for “above.”

L1210 DDP = experiment: % death of L1210 DDP cells treated or not with cerulenin (flow cytometry); assay type: cell-based; conditions: for % Death: 25 ug/mL Cerulenin
Protocol: as §1, §4, §3

## O=c1[nH]cc(F)c(=O)[nH]1 [5-FU, 5-Fluorouracil]
[1]
  half-life in vivo: about 18 minutes

## OC[C@H]1O[C@H](O)CC(O)[C@@H]1O (stereo partly drawn) [2-deoxy-D-glucose]
[2]; RD cells after 24 hours
  percent of cell deaths: 46%
[2]; RD cells after 48 hours
  percent of cell deaths: 63%
HL60 MDR tumor; Day 7, daily IP from one week after implantation
  tumor volume: 35 mm^3
HL60 MDR tumor; Day 9, daily IP
  tumor volume: 51.56 mm^3
HL60 MDR tumor; Day 15, daily IP
  tumor volume: 158.55 mm^3
HL60 MDR tumor; Day 21, daily IP
  tumor volume: 1,181.61 mm^3
HL60 MDR tumor; HL60 MDR in nude mice, 21 day period, single agent
  effect on tumor growth: increase in tumor growth
[3]; HL60 MDR cells after 24 hours
  percent of cell deaths: 16%
[3]; HL60 MDR cells after 48 hours
  percent of cell deaths: 38%

## C/C=C/C/C=C/CCC(=O)[C@H]1O[C@H]1C(N)=O [cerulenin]
B16F1 melanoma cells; Day 9
  tumor observation and activity of mouse: Day 9 no visible sign of tumors - very active
B16F1 melanoma cells; Day 12
  tumor observation and activity of mouse: Day 12 no visible tumors - very active (FIG. 5D)
B16F1 melanoma cells; Day 13
  tumor observation and activity of mouse: Day 13 no visible tumors - very active
B16F1 melanoma cells; mice exposed to melanoma cells treated with cerulenin, during the experiment
  development of lethal cancers: did not develop lethal cancers
B16F1; 4 Hours (Table 1)
  % Death: 0%
B16F1; 5.0 Hours (Table 2)
  % Death: 67%
B16F1; 24 hours (Table 2)
  % Death: 72%
B16F1; .0 Hours (Table 1)
  % Death: 1%
HL60; 4 Hours (Table 1)
  % Death: 4%
HL60; .0 Hours (Table 1)
  % Death: 1%
HL60; HL60 cells treated with cerulenin, FIG. 4C
  cell survival in microscopy images: large numbers of the cells survived
L1210; 7.0 Hours
  % Death: 27%
L1210; 24 Hours
  % Death: 89%
HL60 MDR; HL60 MDR cells treated with cerulenin, FIGS. 4E and 4F
  cell death in microscopy images: large numbers of cell death
HL60 MDR; HL60 MDR, 4 Hours (Table 1)
  % Death: 9.6%
HL60 MDR; HL60 MDR, .0 Hours (Table 1)
  % Death: 3%
HL60 MDR; HL60 MDR, after treatment with cerulenin
  cell death compared to control and non-multidrug resistant cancer cells: greater amounts of cell death
L1210 DDP; 7.0 Hours
  % Death: 14%
L1210 DDP; 24 Hours
  % Death: 92%
L1210 DDP; after treatment with cerulenin
  cell death compared to control and non-multidrug resistant cancer cells: greater amounts of cell death
